Source: patent publication US20240390298A1, “CYCLOHEXYL BETA-HYDROXY ALKYL AMINES AND MEDICAL USES THEREOF” (ATROGI AB, priority 2021, published 2024)

How the values were obtained:
Format in all cases: cell-based
L6-myotubes [1] = experiment: Measurement of intracellular cAMP levels in differentiated L6 cells (alpha screen cAMP kit), compared to isoproterenol; details: Rattus norvegicus, L6, 0.25 h, agonist 1×10^−5 M, 15 min, read-out: Biological example 2: intracellular cAMP levels, activity compared to that of isoproterenol
Method in brief: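 L6 myoblasts were differentiated into myotubes over 7 days in 2% FBS, then serum-starved overnight. Agonist at 1×10^−5 M final was applied for 15 min in HBSS with 1% BSA, 5 mM HEPES and 1 mM IBMX, pH 7.4. After ethanol extraction and lysis, cAMP was quantified by AlphaScreen, with activity expressed relative to isoproterenol.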

L6-myotubes [2] = experiment: Glucose uptake in L6-myotubes in the presence of the β2-antagonist ICI-118,551; details: differentiated L6-myotubes; compound 1×10^−5 M; ICI-118,551 1×10^−5 M
Procedure: L6-myoblasts were grown in Dulbecco's Modified Eagle's Medium (DMEM) containing 1 g/L glucose supplemented with 10% fetal bovine serum, 2 mM L-Glutamine, 50 U/mL penicillin, 50 μg/mL streptomycin and 10 mM HEPES. Cells were plated at 1×10^5 cells per mL in 24-well plates. After reaching 90% confluence the cells were grown in medium containing 2% FBS for 7 days where upon cells differentiated into myotubes.
Differentiated L6-myotubes were serum-starved overnight in medium containing 0.5% fatty-acid free BSA and were incubated with the β2-adrenergic receptor antagonist ICI-118,551 at a final concentration of 1×10^−5 M for 30 min. The cells were stimulated with a compound of the invention, at a final concentration of 1×10^−5 M. After 1 h 40 min the cells were washed twice with warm, glucose free medium or PBS and additional portions of the compound of the invention and the antagonist were added. After 20 min the cells were exposed to 50 nM ^3H-2-deoxyglucose for 10 min before washed with ice cold glucose free medium or PBS three times and lysed with 0.2 M NaOH, 400 μL/well, for 1 h at 60° C. The cell lysate was mixed with 4 mL scintillation buffer (Emulsifier Safe, Perkin Elmer) and the radioactivity was detected in a β-counter (Tri-Carb 4810TR, Perkin Elmer). The activity for each compound is compared to that of isoproterenol.

L6-myotubes [3] = experiment: Glucose uptake in differentiated L6-myotubes (3H-2-deoxyglucose), compared to isoproterenol; details: agonist 1×10^−5 M, 50 nM 3H-2-deoxyglucose
Method in brief: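 Serum-starved differentiated L6 myotubes stimulated with agonist at 1×10^−5 M for 1 h 40 min, re-dosed in glucose-free medium for 20 min, then given 50 nM ^3H-2-deoxyglucose for 10 min. Uptake read by β-counting of NaOH lysates; activity expressed relative to isoproterenol.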

Row | Compound | Emax at 10 µM (L6-myotubes [1]) [%] | Biological example 3: glucose uptake in the presence of the β2-antagonist ICI-118,551, activity compared to that of isoproterenol (L6-myotubes [2]) | Biological example 1: glucose uptake, activity compared to that of isoproterenol (L6-myotubes [3])
1 | CC(C)(C[C@H]1CC[C@H](N)CC1)NC[C@H](O)c1cncc(F)c1 [Example 85, (R)-2-((1-((1r,4R)-4-Aminocyclohexyl)-2-methylpropan-2-yl)amino)-1-(5-fluoropyridin-3-yl)ethan-1-ol] | < 25 | − (less than 25%) | + + +
2 | COC(=O)[C@H]1CC[C@H](CC(C)(C)NC[C@H](O)c2cccc(F)c2)CC1 [Example 107, Methyl (1R,4r)-4-(2-(((R)-2-(3-Fluorophenyl)-2-hydroxyethyl)amino)-2-methylpropyl)cyclohexane-1-carboxylate] | < 25 | − (less than 25%) | + + +
3 | COC(=O)[C@H]1CC[C@@H](CCC(C)(C)NC[C@H](O)c2cncc(F)c2)CC1 [Example 112, Methyl (1S,4s)-4-(3-(((R)-2-(5-fluoropyridin-3-yl)-2-hydroxyethyl)amino)-3-methylbutyl)cyclohexane-1-carboxylate] | 25 to 50 | − (less than 25%) | + + +
4 | COC(=O)[C@H]1CC[C@H](CCC(C)(C)NC[C@H](O)c2cncc(F)c2)CC1 [Example 116, Methyl (1R,4r)-4-(3-(((R)-2-(5-fluoropyridin-3-yl)-2-hydroxyethyl)amino)-3-methylbutyl)cyclohexane-1-carboxylate] | < 25 | − (less than 25%) | + + +
